Data on nine molecules can be found in patent US7585859B2, “PDE4B inhibitors and uses therefor” (Plexxikon, Inc., priority 2004, dated 2009).

Experiment [1] concerns the target T1, PDE4B: The catalytic domain of human PDE4B from S152-S528 (Homo sapiens, UniProt Q07343).
T1 construct: His6 (N); thrombin cleavage site (N); made in house; host or cells: E. coli
Put plainly: PDE4 IC50 determination by Scintillation Proximity Assay, PDE4B. Format: biochemical. Summed up:
(§1)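 Enzyme was added to compound and [^3H]cAMP, then incubated 30 min at 30° (PDE4B 80 ng/ml; PDE4D 4 ng/ml). Product [^3H]AMP bound to SPA beads and was counted. IC50 was fitted by non-linear regression against DMSO and roflumilast controls.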
(Scintillation proximity formats need no separation of bound from free tracer.)

The target of experiment [2] is T2, full-length human PDE4D5 isozyme (Homo sapiens, UniProt Q08499).
T2 construct: The full-length human PDE4D5 isozyme; His6 (N); TEV cleavage site (N); made in house; host or cells: baculovirus infected insect cells (unpurified lysate)
Put plainly: PDE4 IC50 determination by Scintillation Proximity Assay, PDE4D5. The format is biochemical. Summed up: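 Unpurified His6-tagged full-length human PDE4D5 from baculovirus-infected insect cell lysate, 0.083 μl glycerol stock/ml, hydrolysed [3H]cAMP in Tris pH 7.5/MgCl/EGTA buffer, 30 min at 30°. ZnSO4/SPA beads stop; [3H]AMP counted. Controls: DMSO and roflumilast; 11-point duplicate curves, nonlinear-regression IC50.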

A further experiment concerns the target T3, PDE4D (Homo sapiens, UniProt Q08499).
T3 construct: PDE4D: The catalytic domain of human PDE4B from S3 16-V692; His6 (N); thrombin cleavage site (N); made in house; host or cells: E. coli
The experiment in a line: PDE4 IC50 determination by Scintillation Proximity Assay, PDE4D. The format is biochemical. The method, boiled down: as §1

Experiment [3] relates to TNFα levels in serum of LPS-challenged rats. The experiment in a line: Rat inhibition studies: serum TNFα after iv LPS challenge. Format: in vivo. Particulars: 2 h, 2 hr challenge delay, read-out: % inhibition r TNFα. As to the method: All studies were done with male rats CD (SD) IGS BR (Crl) (Charles River, France), which were grouped in to 5 animal groups.
At the end of the acclimatization period, the non-fasted rats were weighed, individually identified on the tail with a permanent marker and administered by oral (po) or interperitoneal (ip) route with either vehicle, reference or test compound in a volume of 10 mL/kg adapted to the body weight. The animals were gathered in groups of 5 animals in a polystyrene labeled cage with sawdust covered floors. 2-hours after vehicle, reference or test substance administration, rats received an intravenous (iv) injection of 0.1 mg/kg LPS in a volume of 1 mL/kg of body weight. 2 h after LPS challenge (or as indicated in Tables 3B and 4B), blood samples were collected into tubes without anticoagulant by retro-orbital puncture under gas (isoflurane) anesthesia. Samples were allowed to clot at room temperature for 5 to 10 min then put on ice until there were prepared by centrifugation (6000×g for 3 min at 4° C.) and stored at −20° C. until use. TNFα levels were measured in serum samples in duplicate by ELISA technique according to the manufacturer's procedure (Rat TNFα kit Quantikine M (RTA00, R&D System, France)). Data are reported as percent decrease in observed TNFα levels versus TNFa levels observed for vehicle dosed animal groups.

Experiment [4] addresses T4, full-length human PDE4B2 isozyme (Homo sapiens, UniProt Q07343).
T4 construct: The full-length human PDE4B2 isozyme; His6 (N); TEV cleavage site (N); made in house; host or cells: baculovirus infected insect cells (unpurified lysate)
Put plainly: PDE4 IC50 determination by Scintillation Proximity Assay, PDE4B2. Format: biochemical. The method, boiled down:
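Unpurified His6-TEV-tagged full-length human PDE4B2 from baculovirus-infected insect cell lysate (2.5 μl of 50% glycerol stock/ml) hydrolysed [3H]cAMP in 50 mM Tris pH 7.5, 8.3 mM MgCl, 1.7 mM EGTA, 0.01% BSA for 30 min at 30°. Stopped with SPA beads in 18 mM ZnSO4; [3H]AMP scintillation counted, IC50 by non-linear regression.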

Setting [5] is: Table 1B, Formula I compounds, read-out: IC50 PDE4B.
[6] abbreviates: Table 1B, Formula I compounds, read-out: IC50 PDE4D5.
[7] abbreviates: Table 1B, Formula I compounds, read-out: IC50 PDE4D.
Setting [8] is: Table 1B, Formula I compounds, read-out: IC50 PDE4B2.
Setting [9] is: po, rat in vivo inhibition assay, 100 mg/kg po.

SMILES strings stand for the structures. Where two headings read alike, the source gives them in different places.

T4 sequence (Q07343 1-564 isoform Q07343-2): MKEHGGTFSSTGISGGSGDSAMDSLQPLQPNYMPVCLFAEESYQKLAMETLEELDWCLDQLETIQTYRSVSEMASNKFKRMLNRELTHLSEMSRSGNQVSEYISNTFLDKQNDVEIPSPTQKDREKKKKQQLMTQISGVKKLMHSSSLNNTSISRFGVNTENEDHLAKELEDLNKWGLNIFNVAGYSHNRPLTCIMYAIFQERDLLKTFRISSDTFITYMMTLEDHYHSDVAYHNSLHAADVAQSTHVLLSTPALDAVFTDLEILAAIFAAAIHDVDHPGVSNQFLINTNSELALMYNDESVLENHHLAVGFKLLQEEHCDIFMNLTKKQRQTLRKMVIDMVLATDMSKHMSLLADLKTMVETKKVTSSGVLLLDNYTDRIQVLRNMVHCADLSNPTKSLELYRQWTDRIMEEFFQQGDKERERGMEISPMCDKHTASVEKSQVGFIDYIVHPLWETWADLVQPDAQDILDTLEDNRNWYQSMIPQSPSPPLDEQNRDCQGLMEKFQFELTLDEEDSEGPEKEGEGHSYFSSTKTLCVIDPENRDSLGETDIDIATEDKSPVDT
T2 sequence (Q08499 1-745 isoform Q08499-6): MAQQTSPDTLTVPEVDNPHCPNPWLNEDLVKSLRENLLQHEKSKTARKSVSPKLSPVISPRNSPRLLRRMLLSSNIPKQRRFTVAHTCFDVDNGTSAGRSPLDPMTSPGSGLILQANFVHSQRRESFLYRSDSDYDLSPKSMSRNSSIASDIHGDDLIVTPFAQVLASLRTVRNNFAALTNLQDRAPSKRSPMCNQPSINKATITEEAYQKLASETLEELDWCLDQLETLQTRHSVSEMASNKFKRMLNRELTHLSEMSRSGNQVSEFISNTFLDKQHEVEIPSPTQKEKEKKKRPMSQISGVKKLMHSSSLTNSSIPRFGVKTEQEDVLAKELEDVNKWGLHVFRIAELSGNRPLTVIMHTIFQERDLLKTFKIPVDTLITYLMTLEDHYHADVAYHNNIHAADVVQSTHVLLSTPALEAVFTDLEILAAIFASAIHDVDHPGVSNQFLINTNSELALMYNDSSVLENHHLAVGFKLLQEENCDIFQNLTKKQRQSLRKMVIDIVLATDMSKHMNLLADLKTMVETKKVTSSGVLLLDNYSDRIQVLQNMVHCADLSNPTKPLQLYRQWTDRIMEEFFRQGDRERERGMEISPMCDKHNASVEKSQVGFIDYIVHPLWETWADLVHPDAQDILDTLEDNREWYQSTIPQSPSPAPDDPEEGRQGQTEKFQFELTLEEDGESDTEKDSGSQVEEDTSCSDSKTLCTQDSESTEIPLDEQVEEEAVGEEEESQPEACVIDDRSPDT
T3 sequence (Q08499 380-756): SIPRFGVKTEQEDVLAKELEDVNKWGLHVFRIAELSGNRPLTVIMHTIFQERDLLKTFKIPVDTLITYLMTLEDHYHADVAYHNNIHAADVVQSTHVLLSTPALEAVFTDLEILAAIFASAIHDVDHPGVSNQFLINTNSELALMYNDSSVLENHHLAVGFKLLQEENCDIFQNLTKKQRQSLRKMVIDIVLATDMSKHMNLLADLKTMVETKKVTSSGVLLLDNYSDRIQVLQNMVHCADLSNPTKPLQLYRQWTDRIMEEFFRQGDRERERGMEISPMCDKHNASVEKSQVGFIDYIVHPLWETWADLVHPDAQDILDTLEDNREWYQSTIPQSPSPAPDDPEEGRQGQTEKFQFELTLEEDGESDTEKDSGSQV
T1 sequence (Q07343 with tags, fused parts or gaps): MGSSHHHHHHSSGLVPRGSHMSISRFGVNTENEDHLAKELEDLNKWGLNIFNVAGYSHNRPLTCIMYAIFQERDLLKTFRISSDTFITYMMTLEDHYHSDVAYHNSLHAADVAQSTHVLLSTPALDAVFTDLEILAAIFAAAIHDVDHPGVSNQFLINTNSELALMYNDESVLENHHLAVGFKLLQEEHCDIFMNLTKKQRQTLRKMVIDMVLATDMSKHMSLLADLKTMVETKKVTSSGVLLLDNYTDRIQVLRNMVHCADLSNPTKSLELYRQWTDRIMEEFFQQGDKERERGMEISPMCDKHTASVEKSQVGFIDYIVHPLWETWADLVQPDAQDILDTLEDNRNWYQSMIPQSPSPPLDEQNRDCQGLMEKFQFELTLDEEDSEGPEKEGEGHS

As for `N#Cc1c(NC2CCCC2)sc(C(=O)c2cc(-c3ccccc3)no2)c1N` [Compound 1-143, 4-Amino-2-cyclopentylamino-5-(3-phenyl-isoxazole-5-carbonyl)-thiophene-3-carbonitrile], the IC50 (in experiment [1] (setting [5]); in experiment [2] (setting [6]); at PDE4D (setting [7]); in experiment [4] (setting [8])) was less than 10 µM throughout. In addition, in experiment [3] (rat, ip), the inhibition in vivo at 50 mg is more than 20%. The inhibition in vivo at 80 mg in experiment [3] (rat, 80 mg, po) is less than 20%. In addition, the inhibition in vivo at 100 mg/kg in experiment [3] (ip, rat, 100 mg/kg, ip) was more than 20%.
For the molecule `N#Cc1c(Nc2ccc(Oc3ccccc3)cc2)sc(C(=O)c2ccccc2Cl)c1N` [Compound 1-161, 4-Amino-5-(2-chloro-benzoyl)-2-(4-phenoxy-phenylamino)-thiophene-3-carbonitrile], the IC50 in experiment [1] (setting [5]) was less than 10 µM; in experiment [2] (setting [6]) it was less than 10 µM; at PDE4D (setting [7]), more than 10 µM; in experiment [4] (setting [8]), less than 10 µM. The inhibition in vivo at 90 mg is more than 20% in experiment [3] (rat, ip) and less than 20% in experiment [3] (rat, po).
In the case of `CSc1cccc(Nc2sc(C(=O)c3ccccc3)c(N)c2C#N)c1` [Compound 1-169, 4-Amino-5-benzoyl-2-(3-methylsulfanyl-phenylamino)-thiophene-3-carbonitrile], the IC50 (in experiment [1] (setting [5]); in experiment [2] (setting [6]); on PDE4D (setting [7]); in experiment [4] (setting [8])) was less than 10 µM throughout. Also, the inhibition in vivo at 70 mg in experiment [3] (rat, 70 mg, po) is more than 20%.
With `N#Cc1c(NC2CCCC2)sc(C(=O)c2ccccc2)c1N` [Compound 1-171, 4-Amino-5-benzoyl-2-cyclopentylamino-thiophene-3-carbonitrile], the IC50 (in experiment [1] (setting [5]); in experiment [2] (setting [6]); at PDE4D (setting [7]); in experiment [4] (setting [8])) was less than 10 µM each time. In addition, the inhibition in vivo at 100 mg/kg in experiment [3] (setting [9]) was less than 20%.
With `N#Cc1c(NC2CCCC2)sc(C(=O)c2cc(-c3ccc(Cl)cc3)no2)c1N` [Compound 1-173, 4-Amino-5-[3-(4-chloro-phenyl)-isoxazole-5-carbonyl]-2-cyclopentylamino-thiophene-3-carbonitrile], the IC50 in experiment [1] (setting [5]) was less than 10 µM; in experiment [2] (setting [6]), more than 10 µM; at PDE4D (setting [7]) it was more than 10 µM; in experiment [4] (setting [8]), less than 10 µM. Moreover, the inhibition in vivo at 100 mg/kg in experiment [3] (setting [9]) is less than 20%.
As for `CSc1cccc(Nc2sc(C(=O)c3cc(-c4ccccc4)no3)c(N)c2C#N)c1` [Compound 1-181, 4-Amino-2-(3-methylsulfanyl-phenylamino)-5-(3-phenyl-isoxazole-5-carbonyl)-thiophene-3-carbonitrile], the IC50 (in experiment [1] (setting [5]); in experiment [2] (setting [6]); at PDE4D (setting [7]); in experiment [4] (setting [8])) was less than 10 µM in each case. Besides, the inhibition in vivo at 100 mg/kg in experiment [3] (setting [9]) was less than 20%.
Turning to `N#Cc1c(NC2CC2)sc(C(=O)c2cc(-c3ccccc3)no2)c1N` [Compound 1-186, 4-Amino-2-cyclopropylamino-5-(3-phenyl-isoxazole-5-carbonyl)-thiophene-3-carbonitrile], the IC50 in experiment [1] (setting [5]) was less than 10 µM; in experiment [2] (setting [6]) it was less than 10 µM; on PDE4D (setting [7]), more than 10 µM; in experiment [4] (setting [8]) it was less than 10 µM. Moreover, the inhibition in vivo at 100 mg/kg in experiment [3] (setting [9]) is less than 20%.
In the case of `N#Cc1c(NC2CCCC2)sc(C(=O)c2cc(-c3ccc(F)cc3)no2)c1N` [Compound 1-221, 4-Amino-2-cyclopentylamino-5-[3-(4-fluoro-phenyl)-isoxazole-5-carbonyl]-thiophene-3-carbonitrile], the IC50 was less than 10 µM in experiment [1] (setting [5]), more than 10 µM in experiment [2] (setting [6]), more than 10 µM at PDE4D (setting [7]) and less than 10 µM in experiment [4] (setting [8]). Further, in experiment [3] (rat, po), the inhibition in vivo at 50 mg was less than 20%.
For the molecule `Nc1nc(NC2CCCC2)sc1C(=O)c1cc(-c2ccccc2)no1` [Compound 2-9, (4-Amino-2-cyclopentylamino-thiazol-5-yl)-(3-phenyl-isoxazol-5-yl)-methanone], the IC50 was less than 10 µM in experiment [1] (first part of Table 2B (2-1 to 2-22), read-out: IC 50 vs. indicated assay PDE4B); less than 10 µM in experiment [2] (first part of Table 2B (2-1 to 2-22), read-out: IC 50 vs. indicated assay PDE4D5); less than 10 µM on PDE4D (first part of Table 2B (2-1 to 2-22), read-out: IC 50 vs. indicated assay PDE4D); less than 10 µM in experiment [4] (first part of Table 2B (2-1 to 2-22), read-out: IC 50 vs. indicated assay PDE4B2). Also, the inhibition in vivo at 100 mg/kg in experiment [3] (po, rat in vivo, 100 mg/kg po, percent decrease in TNFα versus vehicle) is more than 20%.
